Measurements as given in paper PMC9599717, “The Multicellular Effects of VDAC1 N-Terminal-Derived Peptide” (Biomolecules, 2022).

Experiments:
[1] = test system: MEC-1 (human B-cell chronic lymphocytic leukemia); test: Cell death by PI staining and flow cytometry (FACS), MEC-1; format: cell-based; settings: MEC-1 cells, 1.5 h
Description: MEC-1 cells were incubated in a serum-free medium with various concentrations of VDAC1-based peptides for 1.5 h at room temperature (RT), collected by centrifugation, washed with phosphate-buffered saline (PBS), and analyzed for cell death. Adherent cancer cells were seeded in culture plates and allowed to adhere overnight in a sterile cell culture incubation chamber maintained at 37 °C and 5% CO2. The next day, media was removed from the plates, and cells were treated with various concentrations of VDAC1-based peptides for the indicated time in serum-free Dulbecco’s Modified Eagle Medium (DMEM) with and without DMSO (final 0.15%) as a control for 6 h at 37 °C and 5% CO2. Cells were trypsinized, centrifuged (1500× g, 5 min), and washed with PBS.
Cell death was analyzed by the propidium iodide (PI) staining, followed by flow cytometry with the iCyt sy3200 Benchtop Cell Sorter/Analyzer and analysis with EC800 v 1.3.7 software (Sony Biotechnology Inc., San Jose, CA, USA). Apoptosis was analyzed by PI and annexin V-FITC staining, which was carried out according to the manufacturer’s instructions with minor modifications. […] Next, cells were washed and PI (6.25 μg/mL), was added immediately before flow cytometry At least 10,000 events were collected, recorded on a dot plot, and analyzed by flow cytometry. […]

VDAC1 = test: Microscale thermophoresis (MST) binding to fluorescently labeled purified VDAC1; settings: fluorescently labeled purified VDAC1 (138 nM); actin 10–500 nM, tubulin 20–2000 nM; 10 mM Tricine pH 7.4, 100 mM NaCl; read-out: Kd of interaction with VDAC1 (MST)
Description: Purified VDAC1 was fluorescently labeled using the NanoTemper Protein-Labeling Blue Kit. Fluorescently labeled VDAC1 was incubated with different concentrations of actin, tubulin, or peptides in 10 mM Tricine buffer (pH 7.4) containing 100 mM NaCl. After a 20-min incubation, 8–10 μL aliquots were loaded into microscale thermophoresis (MST) grade glass capillaries (NanoTemper Technologies, Munich, Germany), and thermophoresis was measured with the NanoTemper Monolith-NT115 system (20/40% light-emitting diode, 40% infrared laser power).
Figure 5 D-Δ(1-18)N-Ter-Antp altered actin filament organization (A,B) U-87MG cells were cultured and incubated for 24 h with D-Δ(1-18)N-Ter-Antp (10 µM). Cells were stained for actin using Phalloidin-488 and visualized by confocal microscopy (A) and quantified for Phalloidin-488 staining intensity (B). The results were from triplicates of different biological repeats and are presented as the means ± SEM. * p ≤ 0.05; ** p ≤ 0.01. (C) Maximum intensity projection of super-resolution (SIM) microscopy image. […] (D) Actin interaction with VDAC1 analyzed using the MST method. […] (E) In vitro G-actin polymerization was monitored, as described in the Method section. […]
Figure 6 D-Δ(1-18)N-Ter-Antp altered tubulin filament organization. […] Quantification of tubulin staining intensity (B). […] (D) Tubulin (20–2000 nM) interaction with VDAC1 analyzed using the MST method.

Substance: 11-GKSARDVFTKGYGFGL-26- RRMKWKK [Δ(1-10)N-Ter-min-Antp, VDAC1 N-terminal residues 11-26 fused to minimal Antp]
- Maximal cell death (at the concentration for maximal cell death) [1]: 20%

Substance: actin
- Kd (VDAC1): 30 nM
